Test results published in patent US8158635B2, “Solid forms comprising 4-[9-(tetrahydro-furan-3-yl)-8-(2,4,6-trifluoro-phenylamino)-9H-purin-2-ylamino]-cyclohexan-1-ol, compositions thereof, and uses therewith” (Signal Pharmaceuticals, LLC, priority 2006, dated 2012).
Converted amounts (≈) assume the structure as drawn. Read-outs that look alike come from different tables or passages of the source.

Key:
Assay type in all cases: physicochemical
[1] = Approximate solubilities of solid forms in solvents; settings: thermodynamic from solid, about 25° C., at least 24 hours, read-out: Approximate Solubility (mg/mL) of Form A of the Free Base of Compound I
Experimental: A weighed sample comprising either the free base or the HCl salt of Compound I was treated with 2 mL of a solvent (either HPLC or reagent grade). The resulting mixture was agitated for at least 24 hours at about 25° C. When all of the solids were dissolved by visual inspection, the estimated solubility was calculated. The solubility was estimated from these experiments based on the total volume of solvent used to give a complete solution. The actual solubility may be greater than those calculated due to the use of a large amount of solvent or a slow rate of dissolution. A known volume of filtrate was evaporated to dryness and the weight of the residue was measured.

[2] = Moisture sorption analysis (Dynamic Vapor Sorption)
Experimental: (§1) In certain embodiments, Form A of the free base of Compound I is stable during drying at temperatures up to about 40-45° C. In certain embodiments, the crystallization and/or recrystallization of Form A of the free base of Compound I provides an effective means of purification by removing or reducing the levels of chemical impurities (such as, e.g., one or more of the chemical compounds provided in FIG. 14) in the resulting material. In certain embodiments, Form A of the free base of Compound I is substantially pure. […] In certain embodiments, Form A of the free base of Compound I is stable upon compression.
Hygroscopicity (moisture sorption desorption) was determined by Dynamic Vapor Sorption (DVS). A solid sample comprising Compound I ranging from 10 to 50 mg was placed into the DVS instrument at 0% relative humidity (RH). The RH was increased from 0% to 80% or 95%. The RH was then decreased in a similar manner to accomplish a full sorption desorption cycle.

[3] = Compression testing, form checked by XRPD; settings: about 2000-psi pressure for about 1 min
Experimental: as §1
X-ray powder diffraction (XRPD) measurements were performed in accordance with United States Pharmacopeia (USP) monograph <941> entitled “X-ray Diffraction” (See, e.g., The United States Pharmacopeia, The National Formulary, 2003, The Unites States Pharmacopeial Convention, Inc., Rockville, Md., 2002, which is herein incorporated by reference in its entirety). A Thermo ARL X'TRA X-ray powder diffractometer (Thermo Electron Corp., Waltham, Mass.), equipped with Nickel-filtered Cu Kα radiation at 1.54 Å, was used for XRPD measurements from about 1.5 °2θ to about 40 °2θ, with a step size of about 0.020°, a count time of about 0.50 seconds per step, and a step scan rate of about 2.40°/min. […] Diffracted radiation was measured using a Peltier-cooled Si (Li) solid-state detector. […]

Stability during drying = settings: temperatures up to about 40-45° C.
Experimental: as §1
Crude 4-[9-(tetrahydro-furan-3-yl)-8-(2,4,6-trifluoro-phenylamino)-9H-purin-2-ylamino]-cyclohexan-1-ol (“Compound I”) (5 g) was dissolved in ethanol (35 ml, 7 vol) at reflux (78-82° C.). Water (75 ml, 15 vol) was added, maintaining the temperature above 75° C. The solution was seeded (0.5-1%) and allowed to cool to ambient temperature (20-25° C.) over 4-6 h. The product was collected by filtration and washed with water (25 ml, 5 vol) then dried (18 h, 40-45° C.) to yield Form A of the free base of Compound I as an off-white crystalline solid. Form A is the imine tautomer of 4-[9-(terahydro-furan-3-yl)-8-(2,4,6-trifluoro-phenylamino)-9H-purin-2-ylamino]-cyclonhexan-1-ol having the structure: […]

solubility ([1]; 2-propanol, 25 °C, organic solvent or mixture, column 1, solvent 2-Propanol): 15.7 mg/mL (≈ 34.9 mM) | solubility ([1]; 2-propanol, 25 °C, organic solvent or mixture, solvent 2-Propanol): 6.39 mg/mL (≈ 14.2 mM) | solubility ([1]; absolute ethanol, 25 °C, organic solvent or mixture, column 1, solvent Absolute ethanol): 47.1 mg/mL (≈ 105 mM) | solubility ([1]; absolute ethanol, 25 °C, organic solvent or mixture, solvent Absolute ethanol): > 50 mg/mL | solubility ([1]; acetone, 25 °C, organic solvent or mixture, column 1, solvent Acetone): 11.6 mg/mL (≈ 25.8 mM) | solubility ([1]; acetone, 25 °C, organic solvent or mixture, solvent Acetone): 1.14 mg/mL (≈ 2.54 mM) | solubility ([1]; acetonitrile, 25 °C, organic solvent or mixture, column 1, solvent Acetonitrile): 2.58 mg/mL (≈ 5.75 mM) | solubility ([1]; acetonitrile, 25 °C, organic solvent or mixture, solvent Acetonitrile): 1.56 mg/mL (≈ 3.48 mM) | solubility ([1]; ethanol/water (1/1), 25 °C, aqueous with cosolvent or surfactant or cyclodextrin, column 1, solvent Ethanol/Water (1/1)): 11.6 mg/mL (≈ 25.9 mM) | solubility ([1]; ethanol/water (1/1), 25 °C, aqueous with cosolvent or surfactant or cyclodextrin, solvent Ethanol/Water (1/1)): > 50 mg/mL | solubility ([1]; ethyl acetate, 25 °C, organic solvent or mixture, column 1, solvent Ethyl acetate): 3.91 mg/mL (≈ 8.72 mM) | solubility ([1]; ethyl acetate, 25 °C, organic solvent or mixture, solvent Ethyl acetate): 0.02 mg/mL (≈ 0.0446 mM) | solubility ([1]; heptane, 25 °C, organic solvent or mixture, column 1, solvent Heptane): 0.55 mg/mL (≈ 1.23 mM) | solubility ([1]; heptane, 25 °C, organic solvent or mixture, solvent Heptane): 0.51 mg/mL (≈ 1.14 mM) | solubility ([1]; methanol, 25 °C, organic solvent or mixture, column 1, solvent Methanol): > 50 mg/mL | solubility ([1]; methanol, 25 °C, organic solvent or mixture, solvent Methanol): > 50 mg/mL | solubility ([1]; methyl ethyl ketone, 25 °C, organic solvent or mixture, column 1, solvent Methyl ethyl ketone): 8.74 mg/mL (≈ 19.5 mM) | solubility ([1]; methyl ethyl ketone, 25 °C, organic solvent or mixture, solvent Methyl ethyl ketone): 0.68 mg/mL (≈ 1.52 mM) | solubility ([1]; methyl t-butyl ether, 25 °C, organic solvent or mixture, column 1, solvent Methyl t-butyl ether): 1.1 mg/mL (≈ 2.45 mM) | solubility ([1]; methylene chloride, 25 °C, organic solvent or mixture, column 1, solvent Methylene chloride): 11.6 mg/mL (≈ 25.8 mM) | solubility ([1]; methylene chloride, 25 °C, organic solvent or mixture, solvent Methylene chloride): 5 mg/mL (≈ 11.1 mM) | solubility ([1]; n-butanol, 25 °C, organic solvent or mixture, column 1, solvent n-Butanol): 19.3 mg/mL (≈ 43.1 mM) | solubility ([1]; n-butanol, 25 °C, organic solvent or mixture, solvent n-Butanol): 7.5 mg/mL (≈ 16.7 mM) | solubility ([1]; organic solvent or mixture, solvent Methyl t-butyl ether): 0.46 mg/mL (≈ 1.03 mM) | solubility ([1]; tetrahydrofuran, 25 °C, organic solvent or mixture, column 1, solvent Tetrahydrofuran): > 50 mg/mL | solubility ([1]; tetrahydrofuran, 25 °C, organic solvent or mixture, solvent Tetrahydrofuran): 2.03 mg/mL (≈ 4.53 mM) | solubility ([1]; toluene, 25 °C, organic solvent or mixture, column 1, solvent Toluene): 0.36 mg/mL (≈ 0.803 mM) | solubility ([1]; toluene, 25 °C, organic solvent or mixture, solvent Toluene): 0.04 mg/mL (≈ 0.0892 mM) | solubility ([1]; water, 25 °C, water, column 1, solvent Water): 0.41 mg/mL (≈ 0.914 mM) | solubility ([1]; water, 25 °C, water, solvent Water): > 50 mg/mL | XRPD pattern following moisture sorption analysis ([2]; after sorption/desorption cycle): substantially unchanged | mass gain in moisture sorption analysis ([2]; increased from about 0% to about 80% RH): about 0.5% | mass gain in moisture sorption analysis ([2]; increased from about 0% to about 95% RH): about 1.4% | XRPD pattern after compression testing [3]: substantially unchanged | stability during drying (Stability during drying): stable
Compound: O[C@H]1CC[C@H](Nc2ncc3nc(Nc4c(F)cc(F)cc4F)n([C@H]4CCOC4)c3n2)CC1 (stereo in doubt) [Form A of the Free Base of Compound I, 4-[9-(tetrahydro-furan-3-yl)-8-(2,4,6-trifluoro-phenylamino)-9H-purin-2-ylamino]-cyclohexan-1-ol]
